Test results as given in US7138361B2, “Herbicidal heterocycles” (E. I. du Pont de Nemours and Company, priority 2000, dated 2006).

What was measured:
Assay type in all cases: in vivo
[1] = test system: Nightshade; assay: Test C preemergence; settings: visual evaluation after 12 to 14 days
[2] = test system: Sunflower; assay: Test C preemergence; settings: scale 0 to 100, 0 no effect, 100 complete control
[3] = test system: smallflower flatsedge (Cyperus difformis); assay: Test C flooded paddy test; settings: for Flatsedge plant response rating: Flooded Paddy, scale 0 to 100, 0 no effect, 100 complete control; for Plant response rating, Flatsedge: flooded paddy test, scale 0 to 100 (0 no effect, 100 complete control)
In short: (§1)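 Visual injury score, 0 (no effect) to 100 (complete control), relative to controls. Paddy plants treated at 2-leaf stage; greenhouse hold 12–14 d before rating.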

[4] = test system: rice (Oryza saliva); assay: Test C flooded paddy test; settings: for Rice plant response rating: Flooded Paddy, scale 0 to 100, 0 no effect, 100 complete control; for Plant response rating, Rice: flooded paddy test, scale 0 to 100 (0 no effect, 100 complete control)
In short: as §1

[5] = test system: duck salad (Heteranthera limosa); assay: Test C flooded paddy test; settings: for Ducksalad plant response rating: Flooded Paddy, scale 0 to 100, 0 no effect, 100 complete control; for Plant response rating, Ducksalad: flooded paddy test, scale 0 to 100 (0 no effect, 100 complete control)
In short: as §1

[6] = test system: barnyardgrass (Echinochloa crus-galli); assay: Test C flooded paddy test; settings: for Barnyardgrass plant response rating: Flooded Paddy, scale 0 to 100, 0 no effect, 100 complete control; for Plant response rating, Barnyardgrass: flooded paddy test, scale 0 to 100 (0 no effect, 100 complete control)
In short: as §1

Structure (SMILES)	Plant response rating (0 to 100), Nightshade ([1]; Rate 500 g/ha)	Plant response rating, Sunflower ([2]; Rate 125 g/ha)	Plant response rating, Sunflower ([2]; Rate 250 g/ha)	Flatsedge plant response rating ([3]; Rate 250 g/ha)	Flatsedge plant response rating ([3]; Rate 500 g/ha)	Plant response rating, Flatsedge ([3]; Rate 62 g/ha)	Plant response rating, Flatsedge ([3]; Rate 125 g/ha)	Rice plant response rating ([4]; Rate 250 g/ha)	Rice plant response rating ([4]; Rate 500 g/ha)	Plant response rating, Rice ([4]; Rate 62 g/ha)	Plant response rating, Rice ([4]; Rate 125 g/ha)	Ducksalad plant response rating ([5]; Rate 250 g/ha)	Ducksalad plant response rating ([5]; Rate 500 g/ha)	Plant response rating, Ducksalad ([5]; Rate 62 g/ha)	Plant response rating, Ducksalad ([5]; Rate 125 g/ha)	Barnyardgrass plant response rating ([6]; Rate 250 g/ha)	Barnyardgrass plant response rating ([6]; Rate 500 g/ha)	Plant response rating, Barnyardgrass ([6]; Rate 62 g/ha)	Plant response rating, Barnyardgrass ([6]; Rate 125 g/ha)	Plant response rating (0 to 100), Nightshade ([1]; Rate 250 g/ha)
COc1cc(OC)cc(N2CCC(n3ccc(C(C)(C)C)n3)C2=O)c1 (centres unmarked) [Compound 71]	30	0	0	100	100	80	100	0	60	0	0	30	30	0	20	0	80	0	0	
CC(C)(C)c1ccn(C2CCN(c3ccc(F)c(Br)c3)C2=O)n1 (centres unmarked) [Compound 75]	50		0	100	100	90	90	30	40	0	0		90	70	80	80	100	70		
CCOC(=O)c1cccc(N2CCC(n3ccc(C(C)(C)C)n3)C2=O)c1 (centres unmarked) [Compound 72]	60	20	20	90	100	60	90	40	50	0	20	90	90	40	80	50	80	0	50	
CC(C)(C)c1ccn(C2CCN(c3cccc(OC(F)F)c3)C2=O)n1 (centres unmarked) [Compound 76]	60		30	90	90	90	90	80	80	20	40	80	100	30	80	90	90	40	90	
CCC(C)c1ccn(C2CCN(c3cccc(OC(C)C)c3)C2=O)n1 (centres unmarked) [Compound 83]	100		0	100	100	90	100	70	80	20	20	100	100	40	40	70	100	60	70	
CC(C)Oc1cccc(N2CCC(n3ccc(C(C)C)n3)C2=O)c1 (centres unmarked) [Compound 82]	100		70	90	100	90	90	60	80	0	30	90	100	20	30	100	100	30	60	
CCC(C)c1ccn(C2OCN(c3cccc(OC(F)(F)F)c3)C2=O)n1 (centres unmarked) [Compound 67]	60	0	0	100	100	100	100	60	90	20	40	100	100	50	90	100	100	60	70	
CC1(c2ccn(C3SCN(c4cccc(OC(F)(F)F)c4)C3=O)n2)CC1 (centres unmarked) [Compound 63]	100	0	40	100	100	90	100	40	40	0	20	80	100	20	20	70	100	20	40	
CC(C)c1ccn(C2SCN(c3cccc(OC(F)F)c3)C2=O)n1 (centres unmarked) [Compound 44]		0		100	100	90	100	90	90	80	80	100	100	50	90	100	100	90	100	0
